Experimental data published in patent US11497787B2, “Functionalized poly-ADP-ribose polymers for drug delivery” (University of Southern California, priority 2019, dated 2022).
Read-outs that look alike come from different tables or passages of the source.

Columns and labels:
[1] = target: T1, purified human full-length PARP1 (Homo sapiens, UniProt P09874); test: HPLC-based kinetic assay, NADase activity; assay type: biochemical; settings: hydrolysis catalyzed by PARP1, 30° C.
T1 construct: His6 (C); made in house; host or cells: E. coli BL21 (DE3), pET-28a(+)
T1 sequence (P09874 whole entry): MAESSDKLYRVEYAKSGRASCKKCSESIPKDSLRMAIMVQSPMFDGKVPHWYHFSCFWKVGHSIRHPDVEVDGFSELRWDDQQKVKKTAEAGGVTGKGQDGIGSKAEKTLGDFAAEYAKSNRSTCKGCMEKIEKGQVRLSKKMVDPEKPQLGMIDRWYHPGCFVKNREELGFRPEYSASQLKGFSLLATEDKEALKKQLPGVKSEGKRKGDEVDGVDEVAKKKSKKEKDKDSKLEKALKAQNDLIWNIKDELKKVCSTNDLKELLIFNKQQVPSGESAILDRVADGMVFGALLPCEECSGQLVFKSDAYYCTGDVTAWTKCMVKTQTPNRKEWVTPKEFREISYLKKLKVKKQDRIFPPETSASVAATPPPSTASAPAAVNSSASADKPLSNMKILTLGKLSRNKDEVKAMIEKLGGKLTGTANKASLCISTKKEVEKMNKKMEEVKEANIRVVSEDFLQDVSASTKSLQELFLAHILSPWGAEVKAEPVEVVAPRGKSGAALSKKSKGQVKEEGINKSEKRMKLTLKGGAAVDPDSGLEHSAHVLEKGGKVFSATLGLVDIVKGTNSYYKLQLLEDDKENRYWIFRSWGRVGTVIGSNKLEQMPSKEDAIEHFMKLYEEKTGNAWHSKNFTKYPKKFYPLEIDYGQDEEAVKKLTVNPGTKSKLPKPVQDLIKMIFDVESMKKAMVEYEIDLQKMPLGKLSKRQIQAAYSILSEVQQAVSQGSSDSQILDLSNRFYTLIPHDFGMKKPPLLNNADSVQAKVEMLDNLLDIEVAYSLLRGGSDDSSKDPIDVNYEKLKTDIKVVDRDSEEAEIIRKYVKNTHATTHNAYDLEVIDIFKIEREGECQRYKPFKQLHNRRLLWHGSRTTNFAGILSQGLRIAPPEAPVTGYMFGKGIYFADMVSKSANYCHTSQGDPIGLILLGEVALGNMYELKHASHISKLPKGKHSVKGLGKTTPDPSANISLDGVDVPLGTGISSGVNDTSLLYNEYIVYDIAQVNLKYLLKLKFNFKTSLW
Method: (§1) High-performance Liquid Chromatography (HPLC)-based Kinetic Assays. Auto-PARylation of PARP1 was carried out in 80 μL assay solutions (30 mM HEPES, pH 8.0, 5 mM MgCl2, 5 mM CaCl2, 1 mM DTT, 100 ng/μL of activated DNA, 100 ng/μL BSA) containing varied concentrations of NAD^+ (50, 100, 250, 450, 600, and 750 μM) or NAD^+ analogues (2, 6; see Table 1) at 30° C. with purified PARP1 enzymes. The reactions were quenched at different time points (NAD^+: 0, 2.5, 5, 10, 15, and 20 min; 2: 0, 60, 120, 180, 240, and 300 min; 6: 0, 5, 10, 15, 20 and 30 min) using 20% ice-cold TCA. After centrifugation, the reaction mixtures were analyzed by reverse phase HPLC using a semipreparative C18 Kinetex column (5 μm, 100 Å, 150×10.0 mm, from Phenomenex Inc, Torrance, Calif.) (mobile phase A: 0.1% formic acid (aq); mobile phase B: 0.1% formic acid in acetonitrile; flow rate=2.0 ml/min; 0-8 min: 0% B, 8-12 min: 0-50% B, 12-13 min: 50-2.5% B, 13-18 min: 2.5-40% B, 18-20 min: 40-0% B) with detection of UV absorbance at 260 nm. […] NADase reaction rates were determined based on the increase in peak areas of the assigned peaks of ADPr and ADPr analogues, while reaction rates for PARP activities were measured based on the decrease in peak areas of the assigned peaks of NAD^+ and NAD^+ analogues excluding NADase activity. […]

[2] = target: wild type PARP1 (Homo sapiens, UniProt P09874); test: Automodification and click-chemistry based immunoblot activity analysis
wild type PARP1, sequence (P09874 whole entry): as above
Method: Automodification and Immunoblotting Activity Analysis. […] 20 μL of the reaction was taken out and saved for SDS-PAGE analysis. The remaining reaction mixtures were further labeled with azide-biotin (for 1-4) or phosphine-PEG3-Biotin (for 5 and 6) through copper(I)-catalyzed azide alkyne cycloaddition (CuAAC) and Staudinger reaction. The CuAAC reactions were performed for one hours at room temperature in 40 μL volume, which contain 30 μL PARP1 automodification mixtures, 2 mM THPTA, 1 mM CuSO4, 100 μM azide-biotin, and 10 mM sodium ascorbate in PBS. […] The levels of auto-PARylation were evaluated by immunoblots using a streptavidin-HRP conjugate for detection of the biotinylated PARP1 via click chemistry and Staudinger reaction.

[3] = target: T1, purified human full-length PARP1; settings: literature value; read-out: Km with PARP1, previously reported value; cited from earlier work
[4] = target: T1, purified human full-length PARP1; test: HPLC-based kinetic assay, PARP activity (auto-PARylation); assay type: biochemical; settings: substrate of PARP1, 30° C.
Method: as §1

Km [1] [µM] | kcat, NADase activity [1] [s⁻¹] | PARP1 automodification signal (substrate use), biotinylation-based immunoblot ([2]; 250 μM NAD^+ or analogue, 5 μM PARP1, 30° C., 2 hours) | Km [4] [µM] | kcat, PARP activity [4] [s⁻¹] | suppression of PARP1 catalytic activity / automodification signal ([2]; automodification with NAD2 and NAD6, versus no-inhibitor controls) | Compound | Km [3] [µM]
472 ± 187 | 0.0065 ± 0.0013 | no automodification signals | 145 ± 36 | 0.0783 ± 0.0067 |  | NC(=O)c1ccc[n+]([C@@H]2O[C@H](COP(=O)([O-])OP(=O)(O)OC[C@H]3O[C@@H](n4cnc5c(N)ncnc54)[C@H](O)[C@@H]3O)[C@@H](O)[C@H]2O)c1 [NAD^+, nicotinamide adenine dinucleotide] | 97 ± 7
 |  |  |  |  | potently suppressed | C[C@]1(c2nc3c(C(N)=O)cccc3[nH]2)CCCN1 [veliparib] | 
